# Legend:
# [1] = tested on: PI3K/Akt/mTOR signaling in lung fibroblasts; experiment: TGF-β1 stimulation of PI3K/Akt/mTOR signaling in lung fibroblasts; assay type: cell-based, mouse; conditions: TGF-β1 10 ng/ml, 24 h
# Description: (§1) FIG. 3. CD148 deficiency enhances PI3K/Akt/mTOR signaling which results in low autophagy, high p62 expression in lung fibroblasts. (A) Mouse lung fibroblasts were isolated from Ptprj^fl/fl Col1a2^Cre-ER(T)+/0 mice (Ptprj−/−) and Col1a2^Cre-ER(T)+/0 mice (WT) and then treated with 4-OHT (1 μM) for 24 h. After 4-OHT treatment, cells were exposed to TGF-β1 (10 ng/ml) for 24 h. After stimulation, cells were harvested, and the expression of p-p85 (Tyr458), p-Akt (Ser473), pmTOR (Ser2448), p-p70 S6 kinase (Thr389), p-S6 ribosomal protein (Ser235/236) and CD148 (n=4 for each condition) in lysates was determined by Western immunoblotting and corresponding densitometry (ImageJ software). Data were normalized to corresponding dephospho-forms or GAPDH. (B) WT and Ptprj−/− cells were stimulated with TGF-β1 (10 ng/ml) for 24 h. Then cells were lysed and LC3-I and -II and p62 were measured by western blot (n=4). […] Then, autophagy flux was measured by LC3-II accumulation in the absence or presence of lysosomal acidification inhibitor chloroquine (25 μM) at 2, 4 and 6 h (n=4). […] LC3 puncta positive cells were quantified using ImageJ (D). […]
# (§2) Polyacrylamide gel electrophoresis and immunoblotting were performed according to standard methods. […] The signals were detected by ECL (Thermo Fisher Scientific, Waltham, MA). […]
# [2] = tested on: autophagy in lung fibroblasts; experiment: TGF-β1 effect on autophagy (LC3, p62) in lung fibroblasts; assay type: cell-based, mouse; conditions: TGF-β1 10 ng/ml, 24 h
# Description: as §1, §2
substance,measurement,setting,value
TGF-β1,"phosphorylation of PI3K (p85 subunit), Akt, mTOR and mTOR-related signaling proteins (p70 S6-kinase and S6)",[1],upregulated
same,autophagy (LC3-II relative to LC3-I),[2],downregulated autophagy
same,p62 expression,[2],increased p62 expression

# — patent publication US20260297164A1, “ANTI-FIBROTIC PEPTIDES AND USES THEREOF” (Deackt, Inc., priority 2021, published 2026)
